Laboratory results from paper PMC10862539, “Chelation of Mitochondrial Iron as an Antiparasitic Strategy” (ACS Infectious Diseases, 2024).
Like-named read-outs stand apart in the source and are kept apart here.

What was measured:
N. fowleri = test: Drug sensitivity assay, N. fowleri (flow cytometry); format: cell-based; conditions: for selectivity (for −Fe): EC50 human fibroblasts / EC50 N. fowleri; for EC50: Naegleria fowleri, 72 h
Experimental: (§1) All organisms were cultivated according to the conditions summarized in Table S2, which also includes strain specifications. Dose–response curves were obtained by their cultivation on 96 well plates in a 2-fold series dilution of the appropriate drug, in a total volume of 200 μL (with the exception of P. falciparum, where the total volume was 100 μL). Iron supplementation was achieved by mixing the compound with Fe-NTA in an equimolar ratio prior to setting up the experiment. Results were plotted and processed using Prism 8.0 (GraphPad Software). A two-tailed unpaired t-test was performed to assess the significance of the difference between mitoDFO with and without added iron. Selectivity was calculated as the ratio of the average EC50 value for human fibroblasts to the average EC50 value for the appropriate pathogen. All data were obtained from a minimum of three independent biological replicates.

T. brucei BSF cells = test: Sytox Green assay, percentage of live cells; format: cell-based, Trypanosoma brucei
Experimental: Sytox Green Assay to determine the percentage of live treated and untreated cells at selected time points. T. brucei BSF cells were seeded at a concentration of 2 × 10^5 cells/mL in 5 mL HMI-9 medium in aerobic cultivation flasks. Cells were treated with compounds at final concentration of 0,05 µM, 0,1 µM, 0,25 µM mitoDFO and 10 µM, 100 µM DFO. In addition, there was a group of untreated cells. At defined time points (24, 36, 48, and 72 h), 20 µL samples were collected from each flask. These samples were then diluted tenfold in fresh HMI-9 medium, reaching a final volume of 200 µL, with the addition of 2 µL SYTOX Green Dead Cell Stain (Invitrogen). Following a 30-minute incubation under standard growth conditions, the cells were analyzed using a Guava EasyCyte 8HT flow cyometer (Luminex flow) with detection at 504/523 nm. This entire procedure was conducted in biological triplicates.
Compound Concentration % of live cells

[1] = tested on: cytosolic pyruvate kinase; test: Pyruvate kinase activity in cytosolic fraction of treated T. brucei 427; format: cell-based, Trypanosoma brucei; conditions: 0.12 μM compound, 24 h
Experimental: T. brucei 427 bloodstream forms were preincubated for 24 h in appropriate conditions (0.12 μM mitoDFO, 0.12 μM DFO, and no addition) and harvested, and cytosolic and mitochondrial fractions were separated by digitonin fractionation as described previously.[46] Briefly, cells were spun down (1200 g, 15 min, 4 °C) and resuspended in SHE buffer (250 mM sucrose, 25 mM HEPES, 1 mM EDTA, pH 7.4), and protein concentration was measured using a BCA kit (Sigma-Aldrich). Subsequently, cells were transferred into HBSS (Sigma-Aldrich) and digitonin (Calbiochem) was added in the protein/digitonin ratio of 1/0.15 for 4 min and spun (21 000 g, 2 min, 4 °C). […] The activities of cytosolic pyruvate kinase and mitochondrial threonine dehydrogenase were assessed in all conditions using the spectrophotometric assay at […], as described in ref ([46]), and served both as markers of successful fraction preparation and to assess the effect of the studied compounds. Briefly, pyruvate kinase was measured in TEA buffer (0.1 M triethanolamine, 5 mM MgSO4, 50 mM KCl, pH 7.6) with added 2.8 mM phosphoenolpyruvate, 2 mM ADP, 0.3 mM NADH, and lactate dehydrogenase. Threonine dehydrogenase was measured in 0.2 M Tris–HCl buffer, pH 8.6, 0.25 KCl with 120 mM threonine, and 2.5 mM NAD^+. Fumarase was measured at […] in 2 mM Tris–HCl buffer, pH 7.5, with 20 mM malate.

[2] = tested on: intracellular Leishmania mexicana amastigotes; test: Intracellular L. mexicana infection assay, GFP amastigotes in macrophages; format: cell-based; conditions: for EC50: Leishmania mexicana, Macrophage, read-out: EC50 infection assay Leishmania mexicana
Experimental: Approximately 10 000 murine macrophages per well were seeded on 96 well plate, and a suspension of 60 000 L. mexicana GFP-expressing promastigotes was added to each well and left to infect the mammal cells for 72 h in a cultivation medium under the conditions described in Table S2. 2-fold dilution series starting with 100 μM of either mitoDFO, DFO, or Amphotericin B in a regular growth medium were added, and cultures were incubated for further 72 h in the same conditions. Macrophage cells were washed and resuspended in growth medium and detached by pipetting, and their concentration in each well was measured on a Guava EasyCyte 8HT flow cytometer (Luminex). The GFP signal of internalized L. mexicana amastigotes in each macrophage was detected using a 488 nm excitation laser and a 525/30 nm detector. Median fluorescence graphs were plotted, and EC50 values for both macrophages and intracellular L. mexicana were calculated using Prism 8.0 (GraphPad Software).

T. brucei 427 (BSF) = test: Drug sensitivity assay, T. brucei 427 bloodstream form (resazurine); format: cell-based, Trypanosoma brucei; conditions: for selectivity (for −Fe): EC50 human fibroblasts / EC50 T. brucei 427 (BSF); for EC50: Trypanosoma brucei, 72 h
Experimental: as §1

Babesia gibsoni = tested on: Babesia gibsoni; design: method as in PMID 18771856; conditions: B. gibsoni; ref [40]; cited from earlier work
P. falciparum = test: Drug sensitivity assay, P. falciparum (SYBR green I); format: cell-based, Plasmodium falciparum; conditions: for selectivity (for −Fe): EC50 human fibroblasts / EC50 P. falciparum; for EC50: Plasmodium falciparum
Experimental: as §1

L. major (promastigote) = test: Drug sensitivity assay, L. major promastigote (flow cytometry); format: cell-based; conditions: for EC50: Leishmania major, 120 h
Experimental: as §1

Human fibroblast BJ1 = test: Drug sensitivity assay, human fibroblast BJ1 (CellTiter-Glo); format: cell-based; conditions: for EC50: 48 h
Experimental: as §1

Candida albicans = test: C. albicans hyphae formation (phase contrast microscopy); format: cell-based; conditions: 3.6 and 7.2 μM mitoDFO for 24 h
Experimental: The yeast form of C. albicans was seeded in the 2 mL RPMI medium on a 24 well plate with a glass bottom and treated with MitoDFO in concentrations of 0, 3.6, and 7.2 μM. The culture was incubated at 35 °C for 24 h, and microscopic images were taken using phase contrast on an inverted microscope Eclipse TI-S (Nikon).

CC(=O)N(O)CCCCCNC(=O)CCC(=O)N(O)CCCCCNC(=O)CCC(=O)N(O)CCCCCN [DFO, Deferoxamine, reference compound]
selectivity (for −Fe) (N. fowleri): >5
EC50 (N. fowleri; iron-free compound, N. fowleri, read-out: EC50 –Fe): 19.5 ± 5.9 µM
EC50 (N. fowleri; pre-treated with equimolar iron, N. fowleri, read-out: EC50 +Fe): > 100 µM
% of live cells (T. brucei BSF cells; 10 µM DFO, 24h): 99,1%
% of live cells (T. brucei BSF cells; 10 µM DFO, 36h): 97,5%
% of live cells (T. brucei BSF cells; 10 µM DFO, 48h): 74,3%
% of live cells (T. brucei BSF cells; 10 µM DFO, 72h): 58,6%
% of live cells (T. brucei BSF cells; 100 µM DFO, 24h): 95,5%
% of live cells (T. brucei BSF cells; 100 µM DFO, 36h): 78,2%
% of live cells (T. brucei BSF cells; 100 µM DFO, 48h): 62,1%
% of live cells (T. brucei BSF cells; 100 µM DFO, 72h): 54,8%
pyruvate kinase activity [1]: no difference in activity
EC50 ([2]; intracellular amastigotes, 72 h treatment): 47.1 ± 2.91 µM
selectivity (for −Fe) (T. brucei 427 (BSF)): >5
EC50 (T. brucei 427 (BSF); iron-free compound, T. brucei 427 (BSF), read-out: EC50 –Fe): 22 ± 1.2 µM
EC50 (T. brucei 427 (BSF); pre-treated with equimolar iron, T. brucei 427 (BSF), read-out: EC50 +Fe): > 50 µM
EC50 (Babesia gibsoni): 6.45 ± 3.43 µM
selectivity (for −Fe) (P. falciparum): >8
EC50 (P. falciparum; iron-free compound, P. falciparum, 48 h, read-out: EC50 –Fe): 12.7 ± 0.6 µM
EC50 (P. falciparum; pre-treated with equimolar iron, P. falciparum, 48 h, read-out: EC50 +Fe): > 50 µM
EC50 (L. major (promastigote); iron-free compound, L. major (promastigote), read-out: EC50 –Fe): > 25 µM
EC50 (L. major (promastigote); pre-treated with equimolar iron, L. major (promastigote), read-out: EC50 +Fe): > 25 µM
EC50 (Human fibroblast BJ1; iron-free compound, Human fibroblast BJ1, read-out: EC50 –Fe): > 100 µM
EC50 (Human fibroblast BJ1; pre-treated with equimolar iron, Human fibroblast BJ1, read-out: EC50 +Fe): > 100 µM

CC(=O)N(O)CCCCCNC(=O)CCC(=O)N(O)CCCCCNC(=O)CCC(=O)N(O)CCCCCN(CCCCCCCCCC[P+](c1ccccc1)(c1ccccc1)c1ccccc1)CCCCCCCCCC[P+](c1ccccc1)(c1ccccc1)c1ccccc1 [mitoDFO]
selectivity (for −Fe) (N. fowleri): 1
DFO/mitoDFO ratio (−Fe) (N. fowleri; N. fowleri): 2.9
mitoDFO EC50 ratio + Fe/–Fe (N. fowleri; N. fowleri): 3.0
EC50 (N. fowleri; read-out: EC50 –Fe): 6.7 ± 0.7 µM
% of live cells (T. brucei BSF cells; 0,1 µM mitoDFO, 24h): 99,1%
% of live cells (T. brucei BSF cells; 0,1 µM mitoDFO, 36h): 97,9%
% of live cells (T. brucei BSF cells; 0,1 µM mitoDFO, 48h): 66,2%
% of live cells (T. brucei BSF cells; 0,1 µM mitoDFO, 72h): 53,8%
% of live cells (T. brucei BSF cells; 0,05 µM mitoDFO, 24h): 98,6%
% of live cells (T. brucei BSF cells; 0,05 µM mitoDFO, 36h): 96,1%
% of live cells (T. brucei BSF cells; 0,05 µM mitoDFO, 48h): 62,1%
% of live cells (T. brucei BSF cells; 0,05 µM mitoDFO, 72h): 52,8%
% of live cells (T. brucei BSF cells; 0,25 µM mitoDFO, 24h): 94,4%
% of live cells (T. brucei BSF cells; 0,25 µM mitoDFO, 36h): 82,5%
% of live cells (T. brucei BSF cells; 0,25 µM mitoDFO, 48h): 70,2%
% of live cells (T. brucei BSF cells; 0,25 µM mitoDFO, 72h): 64,3%
cells alive (T. brucei BSF cells; 24 h incubation with up to 0.25 μM): more than 90%
living cells (T. brucei BSF cells; twice the EC50 concentration, 36 h): more than 95%
hyphal growth of Candida albicans culture (Candida albicans): absence of hyphal growth
pyruvate kinase activity [1]: no difference in activity
decrease in EC50 concentration, intracellular amastigotes versus axenic parasites [2]: 2 fold
EC50 ([2]; 72 h): 0.67 ± 0.24 µM
selectivity (for −Fe) (T. brucei 427 (BSF)): 151
DFO/mitoDFO ratio (−Fe) (T. brucei 427 (BSF); T. brucei 427 (BSF)): 372.9
mitoDFO EC50 ratio + Fe/–Fe (T. brucei 427 (BSF); T. brucei 427 (BSF)): 2.1
EC50 (T. brucei 427 (BSF); read-out: EC50 –Fe): 0.059 ± 0.022 µM
selectivity (for −Fe) (P. falciparum): 27
DFO/mitoDFO ratio (−Fe) (P. falciparum; P. falciparum): 38.0
mitoDFO EC50 ratio + Fe/–Fe (P. falciparum; P. falciparum): 1.4
EC50 (P. falciparum): 0.334 ± 0.01 µM
EC50 (P. falciparum; 48 h, read-out: EC50 –Fe): 0.33 ± 0.01 µM
selectivity (for −Fe) (L. major (promastigote); EC50 human fibroblasts / EC50 L. major (promastigote)): 5
DFO/mitoDFO ratio (−Fe) (L. major (promastigote); L. major (promastigote)): >13.2
mitoDFO EC50 ratio + Fe/–Fe (L. major (promastigote); L. major (promastigote)): 4.8
EC50 (L. major (promastigote); read-out: EC50 –Fe): 1.9 ± 0.6 µM
EC50 (Human fibroblast BJ1; Homo sapiens, Fibroblast, read-out: EC50 –Fe): 8.9 ± 3.2 µM
DFO/mitoDFO ratio (−Fe) (Human fibroblast BJ1; Human fibroblast BJ1): >11.2
mitoDFO EC50 ratio + Fe/–Fe (Human fibroblast BJ1; Human fibroblast BJ1): 2.5
